For experiment [1], the target named is T1, VIM-2 (Escherichia coli, UniProt Q5U7L7).
T1 construct: made in house
As to the kind of experiment: Dose rate inhibition studies for IC50 determination, VIM-2 enzymatic assay. To be noted: inhibitor 0-800 μM, 3 parallel measurements, N.I. = no enzyme inhibitory activity observed; for IC50: Enzyme IC50 VIM-2, 0.1 nM VIM-2, 100 μM ZnCl2, nitrocefin substrate. Format: biochemical. How it is done:
(§1) The […] synthesized compounds 5a–l were tested for their inhibitory activities against NDM-1, VIM-2 (Table 1), and GIM-1 in an in vitro enzymatic assay (ESI ^†).[41] The inhibitory activity was measured using enzyme concentrations of 0.1 nM VIM-2, 10 nM NDM-1 or 1 nM GIM-1, with an excess Zn(II) (100 μM, see Experimental methods), with inhibitor compounds with concentrations from 0 to 800 μM. Each data point was measured in triplicates. […] This is in line with previous reports.[42,43]
(§2) A 100 μl solution with buffer (50 mM HEPES (pH 7.2), 100 μM ZnCl2, 2.5% DMSO), purified enzyme (0.1 nM VIM-2, 10 nM NDM-1 or 1 nM GIM-1) and 800–0 μM inhibitor was incubated in a 96 well plate at 25 °C for 5 min. In addition, the enzyme buffer contained 400 μg ml^−1 bovine serum albumin (BSA) to prevent protein unfolding and loss of activity due to low concentrations.[67,68] 100 μM of the reporter substrate nitrocefin (VIM-2, GIM-1) or imipenem (NDM-1) was added to the enzyme–inhibitor solution and the increase in absorbance at 482 nm (nitrocefin) or 300 nm (imipenem) was recorded on a Spectramax M4 spectrophotometer (Molecular Devices). Each data point was performed in triplicates and the initial velocity for each inhibitor concentration was analyzed by a log [inhibitor] vs. response curve fitting to calculate IC50 in GraphPad Prism 9.2 software.

For experiment [2], the target named is T2, 15N-labelled VIM-2 (Escherichia coli, UniProt Q5U7L7).
T2 construct: made in house
As to the kind of experiment: 1H,15N HSQC NMR chemical shift perturbation titration, VIM-2. Format: binding. To be noted: VIM-2 Kd, 0-16 equiv. ligand, pH 7.0, 310 K. How it is done:
(§3) Solution NMR spectroscopy is a powerful tool to assess protein–ligand interactions under close to physiological conditions.[47] We, therefore, performed NMR chemical shift perturbation (CSP, for details, see section S8, ESI ^†) experiments to identify the amino acid residues of NDM-1 and VIM-2 that are involved in inhibitor binding, making use of the previously published protein assignments.[48,49] Titrations were conducted using ^15N-labelled proteins with 0, 0.5, 1, 2, 4, 8, and 16 equiv. of 5 inhibitors for NDM-1 and of 7 inhibitors for VIM-2.
(§4) For the titrations, ^15N-labelled NDM-1 and ^15N-labelled VIM-2 (250 μM), and titrated ligands (0.5 equiv. in 1 μL) were prepared in the same buffer as the protein (20 mM KPO4, 0.1 mM ZnCl2, pH 7.0 with 10% D2O and 2.5% DMSO-d6). ^1H,^15N HSQC spectra were acquired with 128 × 1024 complex points (F1 × F2) and spectral width of 9090 × 2740 Hz on ^15N-labeled NDM-1/VIM-2 and with every titration step up to 1 : 16 ratio between protein : ligand (0, 0.5, 1, 2, 4, 8, and 16 equiv. of ligand). All experiments were recorded on a Bruker 600 MHz spectrometer at 310 K equipped with a 5 mm TCI cryogenic probe. The NMR data were processed on the MestReNova software with the Mnova Binding plugin. The weighted average chemical shift perturbations (CSP) for the backbone amides were calculated from the observed chemical shift differences in the proton and nitrogen dimensions using the equation (chemical shift scaling factors: FH = 1, FN = 0.156) CSP = Δδ1H,15N = [drawing 13] .
(§5) 7. Chemical shift perturbation histograms
(§6) Chemical shift perturbation was calculated according equation (1) 2
(§7) CSP = Δδ(1H,15N) = √(Δδ1H2 + (1⁄R × Δδ15N2) Rscale = 6.5 (1)
(§8) Where Δδ1H is the chemical shift change for proton dimension, Δδ15N is the chemical shift change for nitrogen dimension, Rscale is a
(§9) The chemical shift perturbations (CSP) were classified as significant (SSP) when the observed Δδ(1H,15N) was greater than the population
(§10) mean plus the standard deviation (µ+1σ) – solid line; (µ+2σ) – dashed line, and (µ+3σ) – dashed line.
(§11) Further on, Kd was calculated according: 3
(§12) ([P]+[L]+Kd)− √([P]+[L]+Kd)2−4[P][L]
(§13) ΔδmaxΔδobs = Δδmax 2[P] (2)
(§14) Where Kd is the dissociation constant, [P] and [L] are protein and ligand concentrations, respectively. Δδmax were estimated in
(§15) MestReNova by extrapolation of the obser ved chemical shift differences Δδobs.

The target of experiment [3] is T3, NDM-1 (Klebsiella pneumoniae, UniProt C7C422).
T3 construct: made in house
T3 sequence (C7C422 29-270 limits assumed): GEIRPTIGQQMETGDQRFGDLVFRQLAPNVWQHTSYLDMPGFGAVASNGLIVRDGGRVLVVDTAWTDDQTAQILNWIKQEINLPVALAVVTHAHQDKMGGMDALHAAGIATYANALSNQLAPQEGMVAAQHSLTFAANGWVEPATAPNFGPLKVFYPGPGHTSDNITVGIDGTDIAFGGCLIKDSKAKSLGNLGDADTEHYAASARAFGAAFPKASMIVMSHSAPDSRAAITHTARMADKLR
As to the kind of experiment: Dose rate inhibition studies for IC50 determination, NDM-1 enzymatic assay. It is filed as biochemical. To be noted: inhibitor 0-800 μM, 3 parallel measurements, N.I. = no enzyme inhibitory activity observed; for Enzyme IC50 NDM-1: 10 nM NDM-1, 100 μM ZnCl2, imipenem substrate; for IC50: Enzyme IC50 NDM-1, 10 nM NDM-1, 100 μM ZnCl2, imipenem substrate. The method, then:
as §1, §2

In experiment [4] the target is T4, 15N-labelled NDM-1 (Klebsiella pneumoniae, UniProt C7C422).
T4 construct: made in house
T4 sequence (C7C422 29-270 limits assumed): as above
Kind of experiment: 1H,15N HSQC NMR chemical shift perturbation titration, NDM-1. It is filed as binding. The method, then: as §3, §4, §5, §6, §7, §8, §9, §10, §11, §12, §13, §14, §15

Where [5] appears, read: Estimated binding constant (Kd), residue 119T, Table S5, per-residue fit, NDM-1 119T.
The mark [6] stands for this setting: Estimated binding constant (Kd), residue 124D, Table S5, per-residue fit, NDM-1 124D.
Setting [7] is: Estimated binding constant (Kd), residue 127G, Table S5, per-residue fit, NDM-1 127G.
Where [8] appears, read: Estimated binding constant (Kd), residue 159H, Table S5, per-residue fit, NDM-1 159H.
Setting [9] is: Estimated binding constant (Kd), residue 160S, Table S5, per-residue fit, NDM-1 160S.
Where [10] appears, read: Estimated binding constant (Kd), residue 188G, Table S5, per-residue fit, NDM-1 188G.
[11] abbreviates: Estimated binding constant (Kd), residue 191S, Table S5, per-residue fit, NDM-1 191S.
[12] abbreviates: Estimated binding constant (Kd), residue 194I, Table S5, per-residue fit, NDM-1 194I.
Setting [13] is: Estimated binding constant (Kd), residue 197G, Table S5, per-residue fit, NDM-1 197G.
Setting [14] is: Estimated binding constant (Kd), residue 205F, Table S5, per-residue fit, NDM-1 205F.
Where [15] appears, read: Estimated binding constant (Kd), residue 211K, Table S5, per-residue fit, NDM-1 211K.
[16] abbreviates: Estimated binding constant (Kd), residue 214K, Table S5, per-residue fit, NDM-1 214K.
Setting [17] is: Estimated binding constant (Kd), residue 217S, Table S5, per-residue fit, NDM-1 217S.
Where [18] appears, read: Estimated binding constant (Kd), residue 228H, Table S5, per-residue fit, NDM-1 228H.
The mark [19] stands for this setting: Estimated binding constant (Kd), residue 229Y, Table S5, per-residue fit, NDM-1 229Y.
[20] abbreviates: Estimated binding constant (Kd), residue 230A, Table S5, per-residue fit, NDM-1 230A.
Where [21] appears, read: Estimated binding constant (Kd), residue 248M, Table S5, per-residue fit, NDM-1 248M.
The mark [22] stands for this setting: Estimated binding constant (Kd), residue 251S, Table S5, per-residue fit, NDM-1 251S.
Setting [23] is: Estimated binding constant (Kd), residue 252A, Table S5, per-residue fit, NDM-1 252A.
The mark [24] stands for this setting: Estimated binding constant (Kd), residue 254D, Table S5, per-residue fit, NDM-1 254D.
Where [25] appears, read: Estimated binding constant (Kd), residue 255S, Table S5, per-residue fit, NDM-1 255S.
The mark [26] stands for this setting: NDM-1 Kd, NMR chemical shift perturbation, 0-16 equiv. ligand, pH 7.0, 310 K.

We go through four compounds from publication PMC10650955, “α-Aminophosphonate inhibitors of metallo-β-lactamases NDM-1 and VIM-2” (RSC Medicinal Chemistry, 2023).

Counter-ions that a name gives are not always drawn.

Take `Cc1[nH]c(=S)sc1CC(=O)NC(C1CCCCN1)P(=O)(O)O` (stereo not drawn) [Compound 5a-1, ((2-(4-Methyl-2-thioxo-2,3-dihydrothiazol-5-yl)acet-amido)(piperidin-2-yl)methyl)phosphonic acid hydro-chloride]: the IC50 in experiment [1] was determined as 353 ± 62 µM. The Kd in experiment [2] came out at 900 ± 100 µM. The “Enzyme IC50 NDM-1” value in experiment [3] was “N.I. ^b”.

In the case of `O=C(NC(C1CCCCN1)P(=O)(O)O)c1cccs1` (stereo not drawn) [Compound 5b-1, (Piperidin-2-yl(thiophene-2-carboxamido)methyl)phos-phonic acid hydrochloride], the IC50 in experiment [1] stood at 118 ± 60 µM; in experiment [3], 230 ± 28 µM. Besides, the Kd in experiment [2] was 400 ± 40 µM; in experiment [4] (Estimated binding constant (Kd), residue 070F, Table S5, per-residue fit, NDM-1 070F), 2920 µM; in experiment [4] (Estimated binding constant (Kd), residue 091T, Table S5, per-residue fit, NDM-1 091T), 5760 µM; in experiment [4] (Estimated binding constant (Kd), residue 108E, Table S5, per-residue fit, NDM-1 108E), 6630 µM; in experiment [4] (setting [5]), 18100 µM; in experiment [4] (setting [6]), 3170 µM. Also, the Kd in experiment [4] (setting [7]) is 8340 µM; in experiment [4] (Estimated binding constant (Kd), residue 149A, Table S5, per-residue fit, NDM-1 149A), 1710 µM; in experiment [4] (Estimated binding constant (Kd), residue 152E, Table S5, per-residue fit, NDM-1 152E), 3520 µM; in experiment [4] (setting [8]), 21500 µM; in experiment [4] (setting [9]) it was 8970 µM; in experiment [4] (setting [10]), 3400 µM. Also, the Kd in experiment [4] (setting [11]) was 850 µM; in experiment [4] (setting [12]), 2930 µM; in experiment [4] (setting [13]), 10400 µM; in experiment [4] (setting [14]) it was 11000 µM; in experiment [4] (setting [15]), 3490 µM; in experiment [4] (setting [16]), 1360 µM. The Kd in experiment [4] (setting [17]) was 10500 µM; in experiment [4] (setting [18]) it was 11000 µM; in experiment [4] (setting [19]), 2240 µM; in experiment [4] (setting [20]) it was 4330 µM; in experiment [4] (Estimated binding constant (Kd), residue 232S, Table S5, per-residue fit, NDM-1 232S), 12100 µM; in experiment [4] (setting [21]) it was 12900 µM. Further, the Kd in experiment [4] (setting [22]) was 6070 µM; in experiment [4] (setting [23]), 3480 µM; in experiment [4] (setting [24]), 9740 µM; in experiment [4] (setting [25]) it was 7370 µM; in experiment [4] (setting [26]), 2000 ± 100 µM.

`O=C(NC(C1CCCCN1)P(=O)(O)O)c1cccs1` (stereo not drawn) [Compound 5b-2, (Piperidin-2-yl(thiophene-2-carboxamido)methyl)phos-phonic acid hydrochloride] showed an IC50 in experiment [1] of 7.2 ± 0.4 µM. In experiment [2], the Kd came out at 1400 ± 100 µM. Moreover, the “Enzyme IC50 NDM-1” value in experiment [3] is listed as “N.I”.

For the compound `O=C(Cc1cccs1)NC(C1CCCCN1)P(=O)(O)O` (stereo not drawn) [Compound 5i-1, (Piperidin-2-yl(2-(thiophen-2-yl)acetamido)methyl)phos-phonic acid hydrochloride], the “Enzyme IC50 VIM-2” value in experiment [1] (0.1 nM VIM-2, 100 μM ZnCl2, nitrocefin substrate) is listed as “N.I”. For the same compound, the equilibrium dissociation constant (Kd) was 1500 ± 200 µM in experiment [2]; 930 µM in experiment [4] (setting [5]); 3530 µM in experiment [4] (setting [6]); 8940 µM in experiment [4] (setting [7]); 2470 µM in experiment [4] (setting [8]); 250 µM in experiment [4] (setting [9]). Besides, the Kd in experiment [4] (setting [10]) is 490 µM; in experiment [4] (setting [11]) it was 120 µM; in experiment [4] (setting [12]), 4990 µM; in experiment [4] (setting [13]), 1270 µM; in experiment [4] (setting [14]), 2300 µM; in experiment [4] (setting [15]), 140 µM. For the same compound, the Kd in experiment [4] (Estimated binding constant (Kd), residue 213S, Table S5, per-residue fit, NDM-1 213S) was 390 µM; in experiment [4] (setting [16]), 570 µM; in experiment [4] (setting [17]), 3060 µM; in experiment [4] (setting [18]), 3080 µM; in experiment [4] (setting [19]) it was 340 µM; in experiment [4] (setting [20]) it was 180 µM. For the same compound, the dissociation constant Kd in experiment [4] (setting [21]) is 780 µM; in experiment [4] (setting [22]) it was 1820 µM; in experiment [4] (setting [23]) it was 480 µM; in experiment [4] (setting [24]) it was 7530 µM; in experiment [4] (setting [25]), 9910 µM; in experiment [4] (setting [26]), 500 ± 100 µM. In experiment [3], this compound yielded a concentration for half-maximal inhibition (IC50) of 296 ± 87 µM.

The term IC50 denotes the concentration at which inhibition is half-maximal. A high value points to lower potency. The term Kd denotes a measure of binding affinity in units of concentration.
